Laboratory results reported in ChEMBL document CHEMBL1201862, “PubChem BioAssay data set” (2004).
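The compound was tested at five concentrations on cells cultured in 96-well plates, with a 48-hour exposure period. Abbreviation: GI50, concentration required for 50% inhibition of growth.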 Active and inactive are the calls of the source. Rule as the data show it: active = GI50 up to about 1.1 µM and inactive = higher.

What was measured:
Test in all cases: NCI-60 cell line screen, 48 h
786-0 = test system: 786-0
A549 = test system: A549
COLO 205 = test system: COLO 205
DU-145 = test system: DU-145
EKVX = test system: EKVX
HL-60 = test system: HL-60
Hs-578T = test system: Hs-578T
M14 = test system: M14
MDA-MB-231 = test system: MDA-MB-231
MDA-MB-435 = test system: MDA-MB-435
MOLT-4 = test system: MOLT-4
Malme-3M = test system: Malme-3M
OVCAR-5 = test system: OVCAR-5
RXF 393 = test system: RXF 393
SF-539 = test system: SF-539
SK-MEL-2 = test system: SK-MEL-2
SK-OV-3 = test system: SK-OV-3
UACC-257 = test system: UACC-257
NCI-H460 = test system: NCI-H460
HCC 2998 = test system: HCC 2998

Measured: GI50

CCOc1cc(C2CC(c3ccc(NS(=O)(=O)c4cc([N+](=O)[O-])ccc4C)cc3)=NN2c2ccc([N+](=O)[O-])cc2[N+](=O)[O-])ccc1O (centres undefined)
inactive: 786-0 2.58 µM | A549 6.55 µM | COLO 205 17.7 µM | DU-145 12.8 µM | EKVX 4.71 µM | HL-60 40.9 µM | Hs-578T 12.9 µM | M14 12.3 µM | MDA-MB-231 6.3 µM | MDA-MB-435 11.6 µM | MOLT-4 23.3 µM | Malme-3M 8.57 µM | OVCAR-5 23.4 µM | RXF 393 7.11 µM | SF-539 7.45 µM | SK-MEL-2 19.5 µM | SK-OV-3 3.43 µM | UACC-257 19.1 µM

Cc1cc(S(N)(=O)=O)c(S/C(=N\Nc2ccc([N+](=O)[O-])cc2)c2ccc(Cl)cc2)cc1Cl
inactive: 786-0 2.64 µM | A549 2.55 µM | COLO 205 7.87 µM | DU-145 2.19 µM | EKVX 6.19 µM | HL-60 44.3 µM | Hs-578T 4.88 µM | M14 4.09 µM | MDA-MB-231 2.94 µM | MDA-MB-435 2.27 µM | MOLT-4 4.1 µM | Malme-3M 1.59 µM | NCI-H460 2.17 µM | OVCAR-5 2.64 µM | RXF 393 1.75 µM | SF-539 1.96 µM | SK-MEL-2 2.76 µM | SK-OV-3 1.96 µM | UACC-257 2.72 µM

Cc1nc2ccc(Cl)cc2c2c1CCN2c1ccccc1
inactive: 786-0 10.4 µM | A549 15 µM | COLO 205 2.76 µM | DU-145 19.5 µM | EKVX 21.2 µM | HCC 2998 12.1 µM | HL-60 2.72 µM | Hs-578T 21 µM | MDA-MB-231 2.3 µM | MDA-MB-435 7.62 µM | MOLT-4 7.03 µM | Malme-3M 17.4 µM | NCI-H460 7.74 µM | RXF 393 3.47 µM | SF-539 13.4 µM | UACC-257 15.2 µM

Cc1ccc2ccccc2c1NC1=NCCO1
inactive: 786-0 > 100 µM | A549 > 100 µM | COLO 205 > 100 µM | DU-145 > 100 µM | EKVX > 100 µM | HCC 2998 82.8 µM | HL-60 58.5 µM | Hs-578T 24.9 µM | M14 > 100 µM | MDA-MB-231 > 100 µM | MDA-MB-435 > 100 µM | MOLT-4 34 µM | Malme-3M > 100 µM | NCI-H460 33.7 µM | OVCAR-5 > 100 µM | RXF 393 > 100 µM | SF-539 35.6 µM | SK-OV-3 > 100 µM | UACC-257 57.3 µM

CCCCCC(/C=C/[C@@H]1[C@@H](C(O)CCCCCC(=O)OC)C(=O)C[C@H]1O[Si](C)(C)C(C)(C)C)OCOCCOC (some centres undefined)
inactive: 786-0 15.6 µM | A549 24.6 µM | COLO 205 18.9 µM | DU-145 18 µM | EKVX 18.8 µM | HCC 2998 23 µM | Hs-578T 9.84 µM | M14 13.8 µM | MDA-MB-231 21.7 µM | MDA-MB-435 8 µM | MOLT-4 1.73 µM | Malme-3M 16.8 µM | NCI-H460 29.7 µM | OVCAR-5 21.1 µM | RXF 393 18.6 µM | SF-539 7.11 µM | SK-MEL-2 17 µM | SK-OV-3 18.8 µM | UACC-257 7.85 µM

Fc1ccc2c3c([nH]c2c1)CCN(Cc1ccccc1)C3
inactive: 786-0 16.1 µM | A549 22.6 µM | COLO 205 20.5 µM | DU-145 22.3 µM | EKVX 20.9 µM | HCC 2998 13.2 µM | HL-60 17.3 µM | Hs-578T 12 µM | M14 17.3 µM | MDA-MB-231 24.3 µM | MDA-MB-435 17.5 µM | MOLT-4 17.3 µM | Malme-3M 18.4 µM | NCI-H460 17.3 µM | OVCAR-5 19.9 µM | RXF 393 16 µM | SF-539 21.7 µM | SK-OV-3 19.2 µM | UACC-257 15.3 µM

COC(=O)C1C(C(=O)OC)C1(Br)CBr (centres undefined)
inactive: 786-0 20.4 µM | A549 > 100 µM | COLO 205 20 µM | DU-145 > 100 µM | EKVX 25.1 µM | HCC 2998 > 100 µM | HL-60 43.2 µM | Hs-578T 89.1 µM | M14 31.5 µM | MDA-MB-231 87.5 µM | MDA-MB-435 60.5 µM | MOLT-4 6.15 µM | NCI-H460 > 100 µM | OVCAR-5 25.4 µM | RXF 393 19.1 µM | SF-539 40.6 µM | SK-MEL-2 > 100 µM | SK-OV-3 > 100 µM | UACC-257 > 100 µM
